Data: US20250296971A1, “GASTRIC INHIBITORY PEPTIDE RECEPTOR LIGANDS” (priority 2021, published 2025)
*1 amine or outer side, *2 acyl side, *3 side chain or, on linkers, in order; H or OH if unused. Where a SMILES comes first, the peptide text is derived from it. Bridges are numbered along the chain shown (N, C = ends). [ ]: non-standard residue; d: D form. The star is where a group is joined. X16 = NC(=O)[C@H](CCCCNC(=O)CN1CCN2CCN3CCN(CC1)CC(=O)[O][Lu]([O]C(=O)C2)[O]C(=O)C3)NC(=O)CCC(=O)NCCCOCCOCCOCCCN*; X5 = NC(=O)[C@H](CCCCNC(=O)CN1CCN(CC(=O)O)CCN(CC(=O)O)CCN(CC(=O)O)CC1)NC(=O)CCC(=O)NCCCOCCOCCOCCCN*; X27 = O=C1CN2CCN3CCN(CC(=O)*)CCN(CC2)CC(=O)[O][Eu]([O]1)[O]C(=O)C3; NH(1-deoxy-D-glucityl) = OC[C@@H](O)[C@@H](O)[C@H](O)[C@@H](O)CN*; DO3AM = NC(=O)CN1CCN(CC(N)=O)CCN(CC(=O)*)CCN(CC(N)=O)CC1; Trp(5-Cl) = N[C@@H](Cc1c[nH]c2ccc(Cl)cc12)C(=O)O; Phe(3,4-Cl2) = N[C@@H](Cc1ccc(Cl)c(Cl)c1)C(=O)O; Pyridine(2,6-diCH2) = c1cc(C[*:1])nc(C[*:2])c1; Trp(6-F) = N[C@@H](Cc1c[nH]c2cc(F)ccc12)C(=O)O; X22 = O=C([C@H](Cc1cccc(Cl)c1Cl)N[*:1])[*:2]; Pro(4,4-F2) = O=C(O)[C@@H]1CC(F)(F)CN1; Pro(4R-NH2) = N[C@H]1CN[C@H](C(=O)O)C1; 1Nal = N[C@@H](Cc1cccc2ccccc12)C(=O)O; mXylylene = c1cc(C[*:1])cc(C[*:2])c1; Glutaryl = O=C(CCCC(=O)[*:2])[*:1]; Hyp = O=C(O)[C@@H]1C[C@@H](O)CN1; X1 = O=C(CN1CCC(N[*:1])CC1)[*:2]; hLeu = CC(C)CC[C@H](N)C(=O)O; Pip = O=C(O)[C@@H]1CCCCN1; hCys = N[C@@H](CCS)C(=O)O; Api = NC1(C(=O)O)CCNCC1; Thp = NC1(C(=O)O)CCOCC1; Aib = CC(C)(N)C(=O)O; Sar = CNCC(=O)O

target: T1, GIPR (CHO-K1-hGIPR cells) (Homo sapiens, UniProt P48546); experiment: FACS binding assay; conditions: competition with 20 nM GIP-057, 4° C. for 1 hour, read-out: pIC50 Category (converted)
T1 construct: host or cells: CHO-K1
T1 sequence (P48546 22-466): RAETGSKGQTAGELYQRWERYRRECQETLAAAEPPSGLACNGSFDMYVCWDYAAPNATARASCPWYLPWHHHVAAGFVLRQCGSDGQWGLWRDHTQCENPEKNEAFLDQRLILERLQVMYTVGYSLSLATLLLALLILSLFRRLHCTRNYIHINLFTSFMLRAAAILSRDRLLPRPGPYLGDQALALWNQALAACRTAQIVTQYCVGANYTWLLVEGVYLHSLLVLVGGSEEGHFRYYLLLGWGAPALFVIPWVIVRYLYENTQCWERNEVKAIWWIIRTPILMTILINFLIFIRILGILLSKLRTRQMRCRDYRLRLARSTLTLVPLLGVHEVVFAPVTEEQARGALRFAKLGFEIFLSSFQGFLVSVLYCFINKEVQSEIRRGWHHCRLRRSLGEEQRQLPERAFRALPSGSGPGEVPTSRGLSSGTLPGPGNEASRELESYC
In short: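 CHO-K1 cells expressing human GIPR, washed in PBS/1% FCS, then stained with 1 μg/mL APC-streptavidin for 30 min on ice.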

SMILES	IC50 [µM]
CC[C@H](C)[C@@H]1NC(=O)[C@H](CC(C)C)NC(=O)C(C)(C)NC(=O)[C@@H](NC(=O)[C@H](CC(C)C)NC(=O)[C@H](CCC(=O)O)NC(=O)[C@@H]2CC(F)(F)CN2C(=O)[C@H](Cc2cccc3ccccc23)NC(=O)[C@H](Cc2c[nH]c3ccccc23)NC(=O)[C@H](CC(=O)O)NC(C)=O)CSCc2cccc(c2)CSC[C@@H](C(N)=O)NC1=O [GIP-341, Ac-Asp-Trp-1Ni-4Dfp-Glu-Leu-[Cys(3MeBn)-Aib-Leu-Ile-Cys]-NH2] (Ac-DW[1Nal][Pro(4,4-F2)]ELC[Aib]LIC-NH2; linker 7-11 via mXylylene)	> 1
CC[C@H](C)[C@@H]1NC(=O)[C@H](CC(C)C)NC(=O)C(C)(C)NC(=O)[C@@H](NC(=O)[C@H](CC(C)C)NC(=O)[C@H](CCC(=O)O)NC(=O)[C@@H]2CCCCN2C(=O)[C@H](Cc2cccc3ccccc23)NC(=O)[C@H](Cc2c[nH]c3ccccc23)NC(=O)[C@H](CC(=O)O)NC(C)=O)CSCc2cccc(c2)CSC[C@@H](C(N)=O)NC1=O [GIP-253, Ac-Asp-Trp-1Ni-Pip-Glu-Leu-[Cys(3MeBn)-Aib-Leu-Ile-Cys]-NH2] (Ac-DW[1Nal][Pip]ELC[Aib]LIC-NH2; linker 7-11 via mXylylene)	0.01 to 0.0794
CC[C@H](C)[C@@H]1NC(=O)[C@H](CC(C)C)NC(=O)C2(CCN(C(=O)CN3CCN(CC(N)=O)CCN(CC(N)=O)CCN(CC(N)=O)CC3)CC2)NC(=O)[C@@H](NC(=O)[C@@H](CC(C)C)NC(=O)[C@H](CCC(=O)O)NC(=O)[C@@H]2C[C@@H](N)CN2C(=O)[C@H](Cc2c[nH]c3ccc(Cl)cc23)NC(=O)[C@H](Cc2c[nH]c3ccccc23)NC(=O)[C@H](CC(=O)O)NC(=O)CCCC(=O)NC[C@H](O)[C@@H](O)[C@H](O)[C@H](O)CO)CSCc2cccc(n2)CSC[C@@H](C(=O)NC2CCN(CC(=O)N[C@H](CCC(=O)NC[C@H](O)[C@@H](O)[C@H](O)[C@H](O)CO)C(N)=O)CC2)NC1=O [GIP-370, AGLU-Glutar-Asp-Trp-5Clw-Tap-Glu-leu-[Cys(2Lut)-Apc(DOTAM)-Leu-Ile-Cys]-APAc-glu(AGLU)-NH2] ({NH(1-deoxy-D-glucityl)-Glutaryl}-DW[Trp(5-Cl)][Pro(4R-NH2)]E[dL]C[Api](DO3AM)LIC[X1][dE](NH(1-deoxy-D-glucityl))-NH2; linker 7-11 via Pyridine(2,6-diCH2))	< 0.01
CC[C@H](C)[C@@H]1NC(=O)[C@H](CC(C)C)NC(=O)C2(CCOCC2)NC(=O)[C@@H](NC(=O)[C@@H](CC(C)C)NC(=O)[C@H](CCC(=O)O)NC(=O)[C@@H]2C[C@@H](O)CN2C(=O)[C@H](Cc2cccc(Cl)c2Cl)NC(=O)[C@H](Cc2c[nH]c3ccccc23)NC(=O)[C@H](CC(=O)O)NC(C)=O)CSCc2cccc(n2)CSC[C@@H](C(N)=O)NC1=O [GIP-265, Ac-Asp-Trp-Egp-Hyp-Glu-leu-[Cys(2Lut)-Thp-Leu-Ile-Cys]-NH2] (Ac-DW[X22][Hyp]E[dL]C[Thp]LIC-NH2; linker 7-11 via Pyridine(2,6-diCH2))	0.01 to 0.0794
CC[C@H](C)[C@@H]1NC(=O)[C@H](CC(C)C)NC(=O)C2(CCOCC2)NC(=O)[C@@H](NC(=O)[C@@H](CC(C)C)NC(=O)[C@H](CCC(=O)O)NC(=O)CN(C)C(=O)[C@H](Cc2ccc(Cl)c(Cl)c2)NC(=O)[C@H](Cc2ccc(Cl)c(Cl)c2)NC(=O)[C@H](CC(=O)O)NC(C)=O)CSCc2cccc(n2)CSC[C@@H](C(N)=O)NC1=O [GIP-357, Ac-Asp-Eaa-Eaa-Nmg-Glu-leu-[Cys(2Lut)-Thp-Leu-Ile-Cys]-NH2] (Ac-D[Phe(3,4-Cl2)][Phe(3,4-Cl2)][Sar]E[dL]C[Thp]LIC-NH2; linker 7-11 via Pyridine(2,6-diCH2))	> 1
CC[C@H](C)[C@@H]1NC(=O)[C@H](CC(C)C)NC(=O)C(C)(C)NC(=O)[C@@H](NC(=O)[C@H](CCC(C)C)NC(=O)[C@H](CCC(=O)O)NC(=O)[C@@H]2CCCN2C(=O)[C@H](Cc2cccc3ccccc23)NC(=O)[C@H](Cc2c[nH]c3ccccc23)NC(=O)[C@H](CC(=O)O)NC(C)=O)CSCc2cccc(c2)CSC[C@@H](C(N)=O)NC1=O [GIP-315, Ac-Asp-Trp-1Ni-Pro-Glu-Hle-[Cys(3MeBn)-Aib-Leu-Ile-Cys]-NH2] (Ac-DW[1Nal]PE[hLeu]C[Aib]LIC-NH2; linker 7-11 via mXylylene)	0.1 to 0.794

same assay, conditions: competition with 20 nM GIP-057, 4° C., 1 hour, read-out: pIC50 Category (converted)

SMILES	IC50 [µM]
CC[C@H](C)[C@@H]1NC(=O)[C@H](CC(C)C)NC(=O)C2(CCOCC2)NC(=O)[C@@H](NC(=O)[C@@H](CC(C)C)NC(=O)[C@H](CCC(=O)O)NC(=O)[C@@H]2C[C@@H](O)CN2C(=O)[C@H](Cc2c[nH]c3ccc(Cl)cc23)NC(=O)[C@H](Cc2c[nH]c3ccccc23)NC(=O)[C@H](CC(=O)O)NC(C)=O)CCSCc2cccc(n2)CSC[C@@H](C(N)=O)NC1=O [GIP-200, Ac-Asp-Trp-5Clw-Hyp-Glu-leu-[Hcy(2Lut)-Thp-Leu-Ile-Cys]-NH2] (Ac-DW[Trp(5-Cl)][Hyp]E[dL][hCys][Thp]LIC-NH2; linker 7-11 via Pyridine(2,6-diCH2))	< 0.01
CC[C@H](C)[C@@H]1NC(=O)[C@H](CC(C)C)NC(=O)C(C)(C)NC(=O)[C@@H](NC(=O)[C@@H](CC(C)C)NC(=O)[C@H](CCC(=O)O)NC(=O)[C@@H]2CCCN2C(=O)[C@H](Cc2c[nH]c3cc(F)ccc23)NC(=O)[C@H](Cc2c[nH]c3ccccc23)NC(=O)[C@H](CC(=O)O)NC(C)=O)CSCc2cccc(c2)CSC[C@@H](C(=O)NCCCOCCOCCOCCCNC(=O)CCC(=O)N[C@@H](CCCCNC(=O)CN2CCN(CC(=O)O)CCN(CC(=O)O)CCN(CC(=O)O)CC2)C(N)=O)NC1=O [GIP-140, Ac-Asp-Trp-6Fw-Pro-Glu-leu-[Cys(3MeBn)-Aib-Leu-Ile-Cys]-Ttds-Lys(DOTA)-NH2] (Ac-DW[Trp(6-F)]PE[dL]C[Aib]LIC-X5; linker 7-11 via mXylylene)	0.01 to 0.0794
CC[C@H](C)[C@@H]1NC(=O)[C@H](CC(C)C)NC(=O)C2(CCOCC2)NC(=O)[C@@H](NC(=O)[C@@H](CC(C)C)NC(=O)[C@H](CCC(=O)O)NC(=O)[C@@H]2C[C@@H](O)CN2C(=O)[C@H](Cc2c[nH]c3ccc(Cl)cc23)NC(=O)[C@H](Cc2c[nH]c3ccccc23)NC(=O)[C@H](CC(=O)O)NC(C)=O)CCSCc2cccc(n2)CSCC[C@@H](C(N)=O)NC1=O [GIP-202, Ac-Asp-Trp-5Clw-Hyp-Glu-leu-[Hcy(2Lut)-Thp-Leu-Ile-Hcy]-NH2] (Ac-DW[Trp(5-Cl)][Hyp]E[dL][hCys][Thp]LI[hCys]-NH2; linker 7-11 via Pyridine(2,6-diCH2))	< 0.01
CC[C@H](C)[C@@H]1NC(=O)[C@H](CC(C)C)NC(=O)C2(CCOCC2)NC(=O)[C@@H](NC(=O)[C@@H](CC(C)C)NC(=O)[C@H](CCC(=O)O)NC(=O)[C@@H]2C[C@@H](N)CN2C(=O)[C@H](Cc2c[nH]c3ccc(Cl)cc23)NC(=O)[C@H](Cc2c[nH]c3ccccc23)NC(=O)[C@H](CC(=O)O)NC(C)=O)CSCc2cccc(n2)CSC[C@@H](C(N)=O)NC1=O [GIP-239, Ac-Asp-Trp-5Clw-Tap-Glu-leu-[Cys(2Lut)-Thp-Leu-Ile-Cys]-NH2] (Ac-DW[Trp(5-Cl)][Pro(4R-NH2)]E[dL]C[Thp]LIC-NH2; linker 7-11 via Pyridine(2,6-diCH2))	< 0.01

same assay, conditions: pIC50 Category, competition with 20 nM GIP-057, 4° C., 1 hour

SMILES	IC50 [µM]
CC[C@H](C)[C@@H]1NC(=O)[C@H](CC(C)C)NC(=O)C(C)(C)NC(=O)[C@@H](NC(=O)[C@@H](CC(C)C)NC(=O)[C@H](CCC(=O)O)NC(=O)[C@@H]2CCCN2C(=O)[C@H](Cc2cccc3ccccc23)NC(=O)[C@H](Cc2c[nH]c3ccccc23)NC(=O)[C@H](CC(=O)O)NC(C)=O)CSCc2cccc(c2)CSC[C@@H](C(=O)NCCCOCCOCCOCCCNC(=O)CCC(=O)N[C@@H](CCCCNC(=O)CN2CCN3CCN4CCN(CC2)CC(=O)[O][Lu]([O]C(=O)C3)[O]C(=O)C4)C(N)=O)NC1=O [GIP-172, Ac-Asp-Trp-1Ni-Pro-Glu-leu-[Cys(3MeBn)-Aib-Leu-Ile-Cys]-Ttds-Lys(LuDOTA)-NH2] (Ac-DW[1Nal]PE[dL]C[Aib]LIC-X16; linker 7-11 via mXylylene)	0.01 to 0.0794
CC[C@H](C)[C@@H]1NC(=O)[C@H](CC(C)C)NC(=O)C2(CCOCC2)NC(=O)[C@@H](NC(=O)[C@@H](CC(C)C)NC(=O)[C@H](CCC(=O)O)NC(=O)[C@@H]2C[C@@H](O)CN2C(=O)[C@H](Cc2c[nH]c3ccc(Cl)cc23)NC(=O)[C@H](Cc2c[nH]c3ccccc23)NC(=O)[C@H](CC(=O)O)NC(=O)CN2CCC(NC(=O)[C@@H](CCC(=O)NC[C@H](O)[C@@H](O)[C@H](O)[C@H](O)CO)NC(=O)CN3CCN4CCN5CCN(CC3)CC(=O)[O][Eu]([O]C(=O)C4)[O]C(=O)C5)CC2)CSCc2cccc(n2)CSC[C@@H](C(=O)NC2CCN(CC(=O)N[C@H](CCC(=O)NC[C@H](O)[C@@H](O)[C@H](O)[C@H](O)CO)C(N)=O)CC2)NC1=O [GIP-064, Europium-Complex of DOTA-glu(AGLU)-APAc-Asp-Trp-5Clw-Hyp-Glu-leu-[Cys(2Lut)-Thp-Leu-Ile-Cys]-APAc-glu(AGLU)-NH2] (X27-[dE](NH(1-deoxy-D-glucityl))[X1]DW[Trp(5-Cl)][Hyp]E[dL]C[Thp]LIC[X1][dE](NH(1-deoxy-D-glucityl))-NH2; linker 9-13 via Pyridine(2,6-diCH2))	< 0.01
